22 molecules from patent publication US20230011869A1 (Hoffmann-La Roche Inc., priority 2018, published 2023) can be followed below.

Structures are written as SMILES. Counter-ions that a name gives are not always drawn. Like-named read-outs stand apart in the source and are kept apart here.

This experiment deals with Acinetobacter baumannii ATCC17961. The experiment can be described thus: Antimicrobial susceptibility testing: 90% growth inhibitory concentration (IC90) determination, Iso-Sensitest broth. In kind it is cell-based. The settings on record: Acinetobacter baumannii, ATCC17961, 16 h, read-out: ATCC17961 IC90. An outline of the steps:
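Twofold serial dilutions (e.g. 50 to 0.097 μM final) in Iso-Sensitest broth, inoculum 5×10^(5) CFU/ml, incubated at 35±2° C. OD600 read every 20 minutes over 16 h; IC90 derived from growth inhibition during logarithmic phase.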

Where [1] appears, read: 90% growth inhibitory concentration, Acinetobacter baumannii ATCC17961, Iso-Sensitest broth, OD 600 nm over 16 h.

The IC90 is the concentration needed for an effect of 90%. Turning to `Cc1cc(Nc2nccn3c(-c4ccc(OCC#N)c(F)c4F)cnc23)ccc1C(=O)N1CCN(C(=O)CN(C)C)CC1` [Example 545, 2-[4-[8-[4-[4-[2-(dimethylamino)acetyl]piper-azine-1-carbonyl]-3-methylanilino]imidazo[1,2-a]pyrazin-3-yl]-2,3-difluorophenoxy]acetonitrile; formic acid], under setting [1], the IC90 was found to be 38 nM.

For `COc1ccc(-c2cnc3c(Nc4ccc(C(=O)N5CCN(C(=O)[C@H](CCCNC(=N)N)NC(=O)[C@@H](N)CCC(=O)O)CC5)c(C)c4)nccn23)c(F)c1F` [Example 555, (S)-4-amino-5-(((S)-1-(4-(4-((3-(2,3-difluoro-4-methoxyphenyl)imidazo[1,2-a]pyrazin-8-yl)amino)-2-methylbenzoyl)piperazin-1-yl)-5-guanidino-1-oxopentan-2-yl)amino)-5-oxopentanoic acid trihydrochloride], under setting [1], the IC90 came out at 704 nM.

Take `Cc1cc(Nc2nccn3c(-c4ccc(OC(F)F)cc4)cnc23)ccc1C(=O)N1CCN(C(=O)OC(C)(C)C)CC1` [Example 556, tert-butyl 4-(4-((3-(4-(difluoromethoxy)phenyl)imidazo [1,2-a]pyrazin-8-yl)amino)-2-methylbenzoyl)piperazine-1-carboxylate]: under setting [1], the IC90 came out at 418 nM. Same read-out and setting: the value for `COc1ccc(-c2cnc3c(Nc4ccc(C(=O)N5CCC(C(=O)N6C[C@@H](O)[C@@H](O)[C@@H](O)C6)CC5)c(C)c4)nccn23)c(F)c1F` [Example 569, (1-(4-((3-(2,3-difluoro-4-methoxyphenyl)imidazo[1,2-a]pyrazin-8-yl)amino)-2-methylbenzoyl)piperidin-4-yl)((3R,4s,5S)-3,4,5-trihydroxypiperidin-1-yl)methanone] was 205 nM; that for `COc1ccc(-c2cnc3c(Nc4ccc(C(=O)N5CCC(C(=O)NCC(O)Cn6cccn6)CC5)c(C)c4)nccn23)c(F)c1F` (stereo not shown) [Example 570, 1-(4-((3-(2,3-difluoro-4-methoxyphenyl)imidazo[1,2-a]pyrazin-8-yl)amino)-2-methylbenzoyl)-N-(2-hydroxy-3-(1H-pyrazol-1-yl)propyl)piperidine-4-carboxamide] was 245 nM. As to `COc1ccc(-c2cnc3c(Nc4ccc(C(=O)N5CCC(C(=O)NCC(O)CN6CCOC(C)C6)CC5)c(C)c4)nccn23)c(F)c1F` (stereo not shown) [Example 571, 1-(4-((3-(2,3-difluoro-4-methoxyphenyl)imidazo[1,2-a]pyrazin-8-yl)amino)-2-methylbenzoyl)-N-(2-hydroxy-3-(2-methylmorpholino)propyl) piperidine-4-carboxamide], under setting [1], the IC90 is 265 nM. Turning to `COc1ccc(-c2cnc3c(Nc4ccc(C(=O)N5CCC(C(=O)NCC(O)CN6CCOCC6)CC5)c(C)c4)nccn23)c(F)c1F` (stereo not shown) [Example 572, 1-(4-((3-(2,3-difluoro-4-methoxyphenyl)imidazo[1,2-a]pyrazin-8-yl)amino)-2-methylbenzoyl)-N-(2-hydroxy-3-morpholinopropyl)piperidine-4-carboxamide], the IC90 under setting [1] was determined as 216 nM. On the same count and under the same terms, the value for `COc1ccc(-c2cnc3c(Nc4ccc(C(=O)N5CCN(C(=O)[C@@H]6CC(F)(F)CN6)CC5)c(C)c4)nccn23)c(F)c1F` [Example 573, (S)-(4-(4-((3-(2,3-difluoro-4-methoxyphenyl)imidazo[1,2-a]pyrazin-8-yl)amino)-2-methylbenzoyl)piperazin-1-yl)(4,4-difluoropyrrolidin-2-yl)methanone hydrochloride] was 310 nM; that for `COc1ccc(-c2cnc3c(Nc4ccc(C(=O)N5CCN(C(=O)[C@@H]6C[C@@H](C#N)CN6)CC5)c(C)c4)nccn23)c(F)c1F` [Example 574, (3R,5S)-5-[4-[4-[[3-(2,3-difluoro-4-methoxyphenyl)imidazo[1,2-a]pyrazin-8-yl]amino]-2-methylbenzoyl]piperazine-1-carbonyl]pyrrolidine-3-carbonitrile;hydrochloride] was 265 nM; that for `COc1ccc(-c2cnc3c(Nc4cc(C)c(C(=O)N5CCN(C(=O)[C@@H]6C[C@@H](O)CN6)CC5)c(Cl)c4)nccn23)c(F)c1F` [Example 575, (4-(2-chloro-4-((3-(2,3-difluoro-4-methoxyphenyl)imidazo[1,2-a]pyrazin-8-yl)amino)-6-methylbenzoyl)piperazin-1-yl)((2S,4R)-4-hydroxypyrrolidin-2-yl)methanone dihydrochloride] was 583 nM.

For `COc1ccc(-c2cnc3c(Nc4ccc(C(=O)N5CCN(C(=O)[C@@H]6C[C@@H](O)CN6)CC5)c(C)c4F)nccn23)c(F)c1F` [Example 576, (4-(4-((3-(2,3-difluoro-4-methoxyphenyl)imidazo[1,2-a]pyrazin-8-yl)amino)-3-fluoro-2-methylbenzoyl)piperazin-1-yl)((2S,4R)-4-hydroxypyrrolidin-2-yl)methanone dihydrochloride], the IC90 under setting [1] worked out at 236 nM.

Take `COc1ccc(-c2cnc3c(Nc4ccc(C(=O)N5CCN(S(=O)(=O)[C@@H]6CCNC6)CC5)c(C)c4)nccn23)c(F)c1F` [Example 579, (R)-(4-((3-(2,3-difluoro-4-methoxyphenyl)imidazo[1,2-a]pyrazin-8-yl)amino)-2-methylphenyl)(4-(pyrrolidin-3-ylsulfonyl)piperazin-1-yl)methanone]: under setting [1], the IC90 stood at 258 nM. On to `CCc1cc(Nc2nccn3c(-c4ccc(OC)c(F)c4F)cnc23)ccc1C(=O)N1CCN(CCO[C@@H]2O[C@H](CO)[C@H](O)[C@H](O)[C@H]2O)CC1` [Example 580, (4-((3-(2,3-difluoro-4-methoxyphenyl)imidazo[1,2-a]pyrazin-8-yl)amino)-2-ethylphenyl)(4-(2-(((2R,3R,4S,5R,6R)-3,4,5-trihydroxy-6-(hydroxymethyl)tetrahydro-2H-pyran-2-yl)oxy)ethyl)piperazin-1-yl)methanone], for which the IC90 under setting [1] is 601 nM. Consider `COc1ccc(-c2cnc3c(Nc4ccc(C(=O)N5C[C@H]6CNC[C@@H](C5)O6)c(C)c4)nccn23)c(F)c1F` [Example 581, ((1R,5S)-9-oxa-3,7-diazabicyclo[3.3.1]nonan-3 - yl)(4-((3-(2,3-difluoro-4-methoxyphenyl)imidazo[1,2-a]pyrazin-8-yl)amino)-2-methylphenyl)methanone dihydrochloride], for which the IC90 under setting [1] was 464 nM. In the case of `COc1ccc(-c2cnc3c(Nc4ccc(C(=O)N5CCN(C(=O)[C@@H]6C[C@@](O)(C(F)(F)F)CN6)CC5)c(C)c4)nccn23)c(F)c1F` [Example 582, (4-(4-((3-(2,3-difluoro-4-methoxyphenyl)imidazo[1,2-a]pyrazin-8-yl)amino)-2-methylbenzoyl)piperazin-1-yl)((2S,4S)-4-hydroxy-4-(trifluoromethyl)pyrrolidin-2-yl)methanone hydrochloride], the IC90 under setting [1] is 273 nM. The same measure, in the same setting: as for `COc1ccc(-c2cnc3c(Nc4ccc(C(=O)N5CCN(C(=O)[C@@H]6C[C@@](OC)(C(F)(F)F)CN6)CC5)c(C)c4)nccn23)c(F)c1F` [Example 583, (4-(4-((3-(2,3-difluoro-4-methoxyphenyl)imidazo[1,2-a]pyrazin-8-yl)amino)-2-methylbenzoyl)piperazin-1-yl)((2S,4S)-4-methoxy-4-(trifluoromethyl)pyrrolidin-2-yl)methanone hydrochloride], the figure is 460 nM; as for `COc1ccc(-c2cnc3c(Nc4ccc(C(=O)N5CCC(C(=O)NC[C@H]6O[C@H](O)[C@H](N)[C@@H](O)[C@@H]6O)CC5)c(C)c4)nccn23)c(F)c1F` [Example 584, N-(((2R,3S,4R,5R,6S)-5-amino-3,4,6-trihydroxytetrahydro-2H-pyran-2-yl)methyl)-1-(4-((3-(2,3-difluoro-4-methoxyphenyl)imidazo[1,2-a]pyrazin-8-yl)amino)-2-methylbenzoyl)piperidine-4-carboxamide], 164 nM. Consider `CCc1cc(Nc2nccn3c(-c4ccc(OC)c(F)c4F)cnc23)ccc1C(=O)N1CC(OCCN)C1` [Example 585, (3-(2-aminoethoxy)azetidin-1-yl)(4-((3-(2,3-difluoro-4-methoxyphenyl)imidazo[1,2-a]pyrazin-8-yl)amino)-2-ethylphenyl)methanone formate], for which the concentration for an effect of 90% (IC90) was found to be 94 nM. Still for that read-out and setting: as for `COc1cc(Nc2nccn3c(-c4ccc(OC)c(F)c4F)cnc23)ccc1C(=O)N1CCN(C(=O)C2CCNCC2)CC1` [Example 587, (4-(4-((3-(2,3-difluoro-4-methoxyphenyl)imidazo[1,2-a]pyrazin-8-yl)amino)-2-methoxybenzoyl)piperazin-1-yl)(piperidin-4-yl)methanone formate], the figure is 214 nM; as for `CCc1cc(Nc2nccn3c(-c4ccc(OC(F)F)c(F)c4F)cnc23)ccc1C(=O)N1CCN(C(=O)C2CCN(CC3CNC3)CC2)CC1` [Example 588, (1-(azetidin-3-ylmethyl)piperidin-4-yl)(4-(4-((3-(4-(difluoromethoxy)-2,3-difluorophenyl)imidazo[1,2-a]pyrazin-8-yl)amino)-2-ethylbenzoyl)piperazin-1-yl)methanone tris(2,2,2-trifluoroacetate)], 116 nM. `CCc1cc(Nc2nccn3c(-c4ccc(OC(F)F)c(F)c4F)cnc23)ccc1C(=O)N1CCC(C(=O)N2C[C@H]3C[C@@H](C2)N3)CC1` [Example 589, (4-(3,6-diazabicyclo[3.1.1]heptane-3-carbonyl)piperidin-1-yl)(4-((3-(4-(difluoromethoxy)-2,3-difluorophenyl)imidazo[1,2-a]pyrazin-8-yl)amino)-2-ethylphenyl)methanone formate]: the IC90 under setting [1] came to 59 nM.

Turning to `CCc1cc(Nc2nccn3c(-c4ccc(OC(F)F)c(F)c4F)cnc23)ccc1C(=O)N1CCC(C(=O)NCC2CCNC2)CC1` (stereo not shown) [Example 590, 1-(4-((3-(4-(difluoromethoxy)-2,3-difluorophenyl)imidazo[1,2-a]pyrazin-8-yl)amino)-2-ethylbenzoyl)-N-(pyrrolidin-3-ylmethyl)piperidine-4-carboxamide 2,2,2-trifluoroacetate formate], the IC90 turned out to be 30 nM.
